Experimental data taken from the supplement of paper PMC10307832.

Experiments:
Experiment in all cases: relative viability (nuclei count vs DMSO), 5 days (fraction); higher = more cells survive
Shikonin + Luminespib = compound: CC(C)=CC[C@@H](O)C1=CC(=O)c2c(O)ccc(O)c2C1=O [Shikonin] + CCNC(=O)c1noc(-c2cc(C(C)C)c(O)cc2O)c1-c1ccc(CN2CCOCC2)cc1 [Luminespib] (partner 0.01 µM)
Method in brief: (§1)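 Relative viability was taken as the ratio of nuclei in treated wells to nuclei in vehicle wells. Lung cancer cell lines in 1536-well plates received compounds by pin tool one day after seeding, either one drug alone or a fixed anchor-drug dose plus five library-drug doses (not always all listed) in √10 steps. Nuclei were counted on 4× images after 5 days of treatment, and values are medians of duplicate plates.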

[1] = compound: CC(C)N(CCCNC(=O)Nc1ccc(C(C)(C)C)cc1)C[C@H]1O[C@@H](n2ccc3c(N)ncnc32)[C@H](O)[C@@H]1O + C[C@@H](Oc1cc(-c2cnn(C3CCNCC3)c2)cnc1N)c1c(Cl)ccc(F)c1Cl [Crizotinib] (partner 1 µM)
Method in brief: as §1

Shikonin + Bortezomib = compound: CC(C)=CC[C@@H](O)C1=CC(=O)c2c(O)ccc(O)c2C1=O [Shikonin] + CC(C)C[C@H](NC(=O)[C@H](Cc1ccccc1)NC(=O)c1cnccn1)B(O)O [Bortezomib] (partner 0.002 µM)
Method in brief: as §1

Shikonin + Olaparib = compound: CC(C)=CC[C@@H](O)C1=CC(=O)c2c(O)ccc(O)c2C1=O [Shikonin] + O=C(c1cc(Cc2n[nH]c(=O)c3ccccc23)ccc1F)N1CCN(C(=O)C2CC2)CC1 [Olaparib] (partner 8 µM)
Method in brief: as §1

## UMC-11
Shikonin + Luminespib; first compound 0.01 µM
  relative viability: 0.997
Shikonin + Luminespib; first compound 0.1 µM
  relative viability: 1.05
Shikonin + Luminespib; first compound 0.3162 µM
  relative viability: 0.986
Shikonin + Luminespib; first compound 1 µM
  relative viability: 0.996
[1]; first compound 0.08 µM
  relative viability: 0.579
[1]; first compound 0.253 µM
  relative viability: 0.706
[1]; first compound 0.8 µM
  relative viability: 0.723
[1]; first compound 2.53 µM
  relative viability: 0.656
[1]; first compound 8 µM
  relative viability: 0.636
Shikonin + Bortezomib; first compound 0.01 µM
  relative viability: 0.773
Shikonin + Bortezomib; first compound 0.1 µM
  relative viability: 0.854
Shikonin + Bortezomib; first compound 0.3162 µM
  relative viability: 0.675
Shikonin + Bortezomib; first compound 1 µM
  relative viability: 0.812
Shikonin + Olaparib; first compound 0.01 µM
  relative viability: 0.332
Shikonin + Olaparib; first compound 0.1 µM
  relative viability: 0.374
Shikonin + Olaparib; first compound 0.3162 µM
  relative viability: 0.346
Shikonin + Olaparib; first compound 1 µM
  relative viability: 0.374
